According to patent publication US8729088B2, “Toll-like receptor modulators and treatment of diseases” (The Regents of the University of California, priority 2009, dated 2014):

Molecular target: T1, TLR7 (Homo sapiens, UniProt Q9NYK1)
T1 construct: endogenous in cells; host or cells: human PBMC from buffy coats (The San Diego Blood Bank)
T1 sequence (Q9NYK1 27-1049): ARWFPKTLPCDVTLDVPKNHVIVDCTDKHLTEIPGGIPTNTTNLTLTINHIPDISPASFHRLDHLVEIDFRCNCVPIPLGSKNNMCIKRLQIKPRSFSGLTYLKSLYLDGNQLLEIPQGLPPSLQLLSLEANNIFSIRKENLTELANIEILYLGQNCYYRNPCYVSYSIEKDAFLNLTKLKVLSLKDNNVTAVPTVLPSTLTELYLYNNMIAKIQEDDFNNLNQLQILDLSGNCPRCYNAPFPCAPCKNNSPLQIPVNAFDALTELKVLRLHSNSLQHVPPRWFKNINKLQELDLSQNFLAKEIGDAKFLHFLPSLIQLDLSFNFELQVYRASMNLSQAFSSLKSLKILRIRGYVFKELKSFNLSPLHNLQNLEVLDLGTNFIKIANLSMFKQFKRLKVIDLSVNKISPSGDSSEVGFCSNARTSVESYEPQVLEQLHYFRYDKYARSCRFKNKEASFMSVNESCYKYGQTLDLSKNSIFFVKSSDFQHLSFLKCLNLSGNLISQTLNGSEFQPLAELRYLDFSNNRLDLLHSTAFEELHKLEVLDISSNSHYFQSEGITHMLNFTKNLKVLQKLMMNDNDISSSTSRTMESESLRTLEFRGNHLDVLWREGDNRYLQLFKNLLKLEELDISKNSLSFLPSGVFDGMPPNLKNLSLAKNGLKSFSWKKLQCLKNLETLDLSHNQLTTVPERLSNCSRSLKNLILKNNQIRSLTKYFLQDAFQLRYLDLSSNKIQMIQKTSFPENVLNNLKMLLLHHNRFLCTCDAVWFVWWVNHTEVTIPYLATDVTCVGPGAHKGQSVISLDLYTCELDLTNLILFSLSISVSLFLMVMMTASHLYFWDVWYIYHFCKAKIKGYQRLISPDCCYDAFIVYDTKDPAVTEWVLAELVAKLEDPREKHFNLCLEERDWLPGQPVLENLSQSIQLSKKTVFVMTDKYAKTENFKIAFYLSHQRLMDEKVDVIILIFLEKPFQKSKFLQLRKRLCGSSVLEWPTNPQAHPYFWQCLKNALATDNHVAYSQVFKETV
Test: Cytokine induction in human PBMC, LUMINEX bead assay
Assay type: cell-based
Conditions: 18 hours
Description: Human blood peripheral mononuclear cells (PBMC) were isolated from human buffy coats, purchased from The San Diego Blood Bank (San Diego, Calif.), as described in Hayashi, T et al., “Enhancement of innate immunity against Mycobacterium avium infection by immunostimulatory DNA is mediated by indoleamine 2,3-dioxygenase”, Infect Immun 69:6156-64, (2001). PBMC (1×10^6/mL) were incubated with various concentrations of TLR7 conjugates for 18 hours at 37° C., 5% CO2 and culture supernatants were collected. The levels of cytokines (IL-6, TNF-α, or IFNα1) in the supernatants were determined by LUMINEX bead assays (Invitrogen, Carlsbad, Calif.), and the results presented in FIG. 3A-B. Data are mean±SEM of triplicates and are representative of three independent experiments. The minimum detection levels of IL-6, TNF-α, and IFNα1 were 6 pg/mL, 10 pg/mL and 15 pg/mL, respectively.
To further investigate the immunological activities in human cells, human PBMC from three donors were treated with TLR7 conjugates and the levels of IL-6 and IFNa1 were determined by LUMINEX assay (FIG. 3A-B).

order of TLR7 conjugate potency	Structure (SMILES)
(4b)>(6)>(9)>/=SM>(8)	CCCCCCCC/C=C\CCCCCCCC(=O)OCC(COP(=O)(O)OCCNC(=O)c1ccc(Cn2c(=O)[nH]c3c(N)nc(OCCOC)nc32)cc1)OC(=O)CCCCCCC/C=C\CCCCCCCC (stereo not drawn) [Compound 6, 2-(4-((6-amino-2-(2-methoxyethoxy)-8-oxo-7H-purin-9(8H)-yl)methyl)benzamido)ethyl 2,3-bis(oleoyloxy)propyl phosphate]
(4b)>(6)>(9)>/=SM>(8)	CCCCCCCC/C=C\CCCCCCCC(=O)OCC(COP(=O)(O)OCCNC(=O)CCc1cn(CCOCCOCCOCCOCCOCCOCCOCCOCCOCCOCCNC(=O)c2ccc(Cn3c(O)nc4c(N)nc(OCCOC)nc43)cc2)nn1)OC(=O)CCCCCCC/C=C\CCCCCCCC (stereo not drawn) [Compound 9, 2-(3-(1-(1-(4-((6-amino-8-hydroxy-2-(2-methoxyethoxy)-9H-purin-9-yl)methyl)phenyl)-1-oxo-5,8,11,14,17,20,23,26,29,32-decaoxa-2-azatetratriacontan-34-yl)-1H-1,2,3-triazole-4-yl)propanamido)ethyl 2,3-bis(oleoyloxy)propyl phosphate]
(4b)>(6)>(9)>/=SM>(8)	COCCOc1nc(N)c2nc(O)n(Cc3ccc(C(=O)NCCOCCOCCOCCOCCOCCOCCOCCOCCOCCOCCn4cc(CCC(=O)O)nn4)cc3)c2n1 [Compound 8, 3-(1-(1-(4-((6-amino-8-hydroxy-2-(2-methoxyethoxy)-9H-purin-9-yl)methyl)phenyl)-1-oxo-5,8,11,14,17,20,23,26,29,32-decaoxa-2-azatetratriacontan-34-yl)-1H-1,2,3-triazol-4-yl)propanoic acid]
